One may read the Emax as the size of the effect at its maximum, as opposed to the concentration needed.

Holding throughout (format): cell-based
Assay [1] addresses T1, human muscarinic M4 receptor (Homo sapiens, UniProt P08173).
T1 construct: expressed in transfected cells
T1 sequence (P08173 1-479): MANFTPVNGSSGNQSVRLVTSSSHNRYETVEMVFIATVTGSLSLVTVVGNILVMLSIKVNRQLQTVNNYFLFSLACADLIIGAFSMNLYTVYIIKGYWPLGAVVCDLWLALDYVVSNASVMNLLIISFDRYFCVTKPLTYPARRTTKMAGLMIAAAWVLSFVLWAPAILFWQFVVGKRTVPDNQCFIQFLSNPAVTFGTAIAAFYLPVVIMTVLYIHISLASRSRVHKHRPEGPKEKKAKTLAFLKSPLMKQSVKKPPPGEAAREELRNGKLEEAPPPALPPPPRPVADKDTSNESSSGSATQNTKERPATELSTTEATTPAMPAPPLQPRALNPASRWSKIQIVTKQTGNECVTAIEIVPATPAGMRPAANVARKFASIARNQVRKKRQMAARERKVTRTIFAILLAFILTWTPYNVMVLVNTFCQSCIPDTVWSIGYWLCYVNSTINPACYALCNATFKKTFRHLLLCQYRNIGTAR
As to the kind of experiment: Alphascreen Surefire phospho-ERK1/2 functional assay, M4. As to conditions: for EC50: CHO cells stably expressing human M4, agonist 5 min, 37° C., read-out: pEC50 M4 (converted); for Emax: CHO, read-out: % Emax cf. ACh, M4. As for the experimental part:
(§1) ERK1/2 phosphorylation is a downstream consequence of both Gq/11 and Gi/o protein coupled receptor activation, making it highly suitable for the assessment of M1, M3 (Gq/11 coupled) and M2, M4 receptors (Gi/o coupled), rather than using different assay formats for different receptor subtypes. CHO cells stably expressing the human muscarinic M1, M2, M3 or M4 receptor were plated (25K/well) onto 96-well tissue culture plates in MEM-alpha+10% dialysed FBS. Once adhered, cells were serum-starved overnight. Agonist stimulation was performed by the addition of 5 μL agonist to the cells for 5 min (37° C.). Media was removed and 50 μL of lysis buffer added. After 15 min, a 4 μL sample was transferred to 384-well plate and 7 μL of detection mixture added. Plates were incubated for 2 h with gentle agitation in the dark and then read on a PHERAstar plate reader.
(§2) pEC50 and Emax figures were calculated from the resulting data for each receptor subtype.

For assay [2], the target named is T2, human muscarinic M1 receptor (Homo sapiens, UniProt P11229).
T2 sequence (P11229 1-460): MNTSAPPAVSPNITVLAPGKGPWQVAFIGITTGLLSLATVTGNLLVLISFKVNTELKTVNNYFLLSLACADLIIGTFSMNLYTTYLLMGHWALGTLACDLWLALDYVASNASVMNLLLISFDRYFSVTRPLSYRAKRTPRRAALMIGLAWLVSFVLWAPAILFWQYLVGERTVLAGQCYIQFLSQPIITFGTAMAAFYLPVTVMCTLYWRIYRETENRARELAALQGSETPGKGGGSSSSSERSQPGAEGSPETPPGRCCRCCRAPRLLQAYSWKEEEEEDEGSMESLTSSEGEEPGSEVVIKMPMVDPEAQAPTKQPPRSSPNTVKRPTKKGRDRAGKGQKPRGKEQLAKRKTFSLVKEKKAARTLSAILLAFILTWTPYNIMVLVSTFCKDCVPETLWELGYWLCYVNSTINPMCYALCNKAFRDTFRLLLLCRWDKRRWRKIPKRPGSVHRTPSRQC
Kind of assay: Alphascreen Surefire phospho-ERK1/2 functional assay, M1. As to conditions: for EC50: CHO cells stably expressing human M1, agonist 5 min, 37° C., read-out: pEC50 M1 (converted); for Emax: CHO, read-out: % Emax cf. ACh, M1. How it is done: as §1, §2
On the technique in general: Alpha assays give light when donor and acceptor beads are brought close together.

Assay [3] addresses T3, human muscarinic M2 receptor (Homo sapiens, UniProt P08172).
T3 sequence (P08172 1-466): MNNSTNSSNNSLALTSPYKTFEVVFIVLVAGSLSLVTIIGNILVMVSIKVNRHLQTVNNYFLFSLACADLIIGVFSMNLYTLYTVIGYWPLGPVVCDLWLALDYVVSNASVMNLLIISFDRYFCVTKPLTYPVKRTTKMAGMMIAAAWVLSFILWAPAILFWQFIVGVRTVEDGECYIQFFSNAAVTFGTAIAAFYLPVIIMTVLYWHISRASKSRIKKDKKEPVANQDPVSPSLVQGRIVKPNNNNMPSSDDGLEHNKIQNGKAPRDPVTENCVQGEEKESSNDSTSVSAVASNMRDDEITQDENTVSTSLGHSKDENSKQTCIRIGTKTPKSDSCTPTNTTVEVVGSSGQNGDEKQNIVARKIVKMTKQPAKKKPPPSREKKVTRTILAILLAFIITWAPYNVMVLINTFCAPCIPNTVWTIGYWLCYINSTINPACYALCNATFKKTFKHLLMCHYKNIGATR
Kind of assay: Alphascreen Surefire phospho-ERK1/2 functional assay, M2. As to conditions: for EC50: CHO cells stably expressing human M2, agonist 5 min, 37° C., read-out: pEC50 M2 (converted); for Emax: CHO, read-out: % Emax cf. ACh, M2. How it is done: as §1, §2

Assay [4] deals with T4, human muscarinic M3 receptor (Homo sapiens, UniProt P20309).
T4 construct: expressed in transfected cells
T4 sequence (P20309 whole entry): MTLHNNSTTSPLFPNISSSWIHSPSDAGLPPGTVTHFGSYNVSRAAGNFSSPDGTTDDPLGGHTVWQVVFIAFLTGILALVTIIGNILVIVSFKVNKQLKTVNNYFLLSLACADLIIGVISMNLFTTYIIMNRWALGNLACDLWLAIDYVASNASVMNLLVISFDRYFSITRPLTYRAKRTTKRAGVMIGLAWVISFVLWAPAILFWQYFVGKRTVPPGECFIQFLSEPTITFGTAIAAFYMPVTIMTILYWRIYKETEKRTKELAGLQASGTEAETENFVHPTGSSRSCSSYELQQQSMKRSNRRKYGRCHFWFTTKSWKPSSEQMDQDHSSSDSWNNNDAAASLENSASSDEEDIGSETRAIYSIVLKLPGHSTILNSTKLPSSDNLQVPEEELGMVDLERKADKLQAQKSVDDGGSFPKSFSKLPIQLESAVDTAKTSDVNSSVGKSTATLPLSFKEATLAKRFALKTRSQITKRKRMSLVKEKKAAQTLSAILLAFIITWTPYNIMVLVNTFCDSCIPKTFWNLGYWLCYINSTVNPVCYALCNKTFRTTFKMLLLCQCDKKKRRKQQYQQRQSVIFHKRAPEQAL
As to the kind of experiment: Alphascreen Surefire phospho-ERK1/2 functional assay, M3. As to conditions: for EC50: CHO cells stably expressing human M3, agonist 5 min, 37° C., read-out: pEC50 M3 (converted); for Emax: CHO, read-out: % Emax cf. ACh, M3. As for the experimental part: as §1, §2

Take `O=C1CCc2ccccc2N1CCCN1[C@@H]2CC[C@H]1CC(CCOC1=NOCC1)C2` (stereo partly drawn) [Example 3, 1-(3-((1R,5S)-3-(2-((4,5-dihydroisoxazol-3-yl)oxy)ethyl)-8-azabicyclo[3.2.1]octan-8-yl)propyl)-3,4-dihydroquinolin-2(1H)-one]: the results for the EC50 in assay [1] and in assay [2] were greater than 20 µM and 0.1 µM, respectively. In addition, the Emax came to 53% in assay [1] and 37% in assay [2].
As to `O=C1CCc2ccccc2N1CCCN1C2CCC1CC(CCCOC1=NOCC1)C2` (centres unmarked) [Example 4, 1-(3-(3-(3-((4,5-dihydroisoxazol-3-yl)oxy)propyl)-8-azabicyclo[3.2.1]octan-8-yl)propyl)-3,4-dihydroquinolin-2(1H)-one], the EC50 in assay [3] was greater than 20 µM; in assay [4], greater than 20 µM; in assay [1], greater than 20 µM; in assay [2] it was 0.00316 µM. Also, the Emax in assay [3] was determined as 29%; in assay [4], 0%; in assay [1], 11%; in assay [2] it was 71%.
As for `O=C1COc2cc(F)ccc2N1CCCN1CCC(CCCCOC2=NOCC2)CC1` [Example 8, 4-(3-(4-(4-((4,5-dihydroisoxazol-3-yl)oxy)butyl)piperidin-1-yl)propyl)-7-fluoro-2H-benzo[b][1,4]oxazin-3(4H)-one], the EC50 was greater than 20 µM in assay [3], greater than 20 µM in assay [4], 0.0251 µM in assay [1] and 0.01 µM in assay [2]. The Emax in assay [3] came out at 4%; in assay [4] it was 3%; in assay [1], 25%; in assay [2] it was 102%.
With `O=C1CCc2ccccc2N1CCCN1CCC(CCCCOC2=NOCC2)CC1` [Example 2, 1-(3-(4-(4-((4,5-dihydroisoxazol-3-yl)oxy)butyl)piperidin-1-yl)propyl)-3,4-dihydroquinolin-2(1H)-one], the EC50 in assay [3] was greater than 20 µM; in assay [4] it was greater than 20 µM; in assay [1] it was greater than 20 µM; in assay [2], 0.00316 µM. The Emax in assay [3] worked out at 3%; in assay [4], 7%; in assay [1], 10%; in assay [2] it was 98%.
For the molecule `O=C1CCON1CCCCCC1CCN(CCCN2C(=O)CCc3ccccc32)CC1` [Example 12, 2-(5-(1-(3-(2-oxo-3,4-dihydroquinolin-1(2H)-yl)propyl)piperidin-4-yl)pentyl)isoxazolidin-3-one], the EC50 is greater than 20 µM in assay [3], greater than 20 µM in assay [4], greater than 20 µM in assay [1] and 0.02 µM in assay [2]. For the same molecule, the Emax in assay [3] was determined as 2%; in assay [4], 1%; in assay [1], 5%; in assay [2], 41%.
On to `O=C1CCc2ccccc2N1CCCN1CCC(CCOC2=NOCC2)CC1` [Example 1, 1-(3-(4-(2-((4,5-dihydroisoxazol-3-yl)oxy)ethyl)piperidin-1-yl)propyl)-3,4-dihydroquinolin-2(1H)-one], for which the EC50 in assay [3] was greater than 20 µM; in assay [4], greater than 20 µM; in assay [1], greater than 20 µM; in assay [2] it was 0.0631 µM. The Emax turned out to be 1% in assay [3], 0% in assay [4], 19% in assay [1] and 92% in assay [2].
Consider `O=C1CCc2ccccc2N1CCCN1[C@@H]2CC[C@H]1CN(CCCOC1=NOCC1)C2` [Example 6, 1-(3-((1R,5S)-3-(3-((4,5-dihydroisoxazol-3-yl)oxy)propyl)-3,8-diazabicyclo[3.2.1]octan-8-yl)propyl)-3,4-dihydroquinolin-2(1H)-one], for which the EC50 in assay [3] is greater than 0.2 µM; in assay [4] it was greater than 0.2 µM; in assay [1], greater than 20 µM; in assay [2] it was less than 0.000631 µM. Also, the Emax in assay [3] was determined as 6%; in assay [4], 0%; in assay [1], 32%; in assay [2], 103%.
Turning to `O=C1CCc2ccccc2N1CCCN1[C@@H]2CC[C@H]1C[C@@H](OCCOC1=NOCC1)C2` [Example 5, 1-(3-(3-(2-((4,5-dihydroisoxazol-3-yl)oxy)ethoxy)-8-azabicyclo[3.2.1]octan-8-yl)propyl)-3,4-dihydroquinolin-2(1H)-one], the EC50 in assay [3] was greater than 20 µM; in assay [4], greater than 20 µM; in assay [1] it was greater than 20 µM; in assay [2] it was 0.00631 µM. For the same molecule, the Emax in assay [3] stood at 16%; in assay [4], 46%; in assay [1], 19%; in assay [2], 62%.
As to `O=C1CCON1CCC1CCN(CCCN2C(=O)CCc3ccccc32)CC1` [Example 10, 2-(2-(1-(3-(2-oxo-3,4-dihydroquinolin-1(2H)-yl)propyl)piperidin-4-yl)ethyl)isoxazolidin-3-one], in assay [1], the EC50 was greater than 20 µM and the maximum response (Emax) is 13%. Besides, in assay [2], the EC50 was 0.794 µM and the Emax stood at 73%.
For the molecule `c1ccc2c(c1)CCCN2CCCN1C2CCC1CC(CCCOC1=NOCC1)C2` (centres unmarked) [Example 9, 3-(3-(8-(3-(3,4-dihydroquinolin-1(2H)-yl)propyl)-8-azabicyclo[3.2.1]octan-3-yl)propoxy)-4,5-dihydroisoxazole], the EC50 in assay [3] was greater than 20 µM; in assay [4], greater than 20 µM; in assay [1], greater than 20 µM; in assay [2], 0.0251 µM. Moreover, the Emax in assay [3] was determined as 28%; in assay [4] it was 21%; in assay [1], 16%; in assay [2] it was 40%.
For the molecule `O=C1COc2cc(F)ccc2N1CCCN1CCC(CCOC2=NOCC2)CC1` [Example 7, 4-(3-(4-(2-((4,5-dihydroisoxazol-3-yl)oxy)ethyl)piperidin-1-yl)propyl)-7-fluoro-2H-benzo[b][1,4]oxazin-3(4H)-one], in assay [1], the EC50 was greater than 20 µM and the Emax was 8%. In addition, in assay [2], the EC50 was 0.251 µM and the Emax was 62%.
Turning to `O=C1CCON1CCCC1C[C@@H]2CC[C@@H](C1)N2CCCN1C(=O)CCc2ccccc21` (stereo partly drawn) [Example 13, 2-(3-((1S,5S)-8-(3-(2-oxo-3,4-dihydroquinolin-1(2H)-yl)propyl)-8-azabicyclo[3.2.1]octan-3-yl)propyl)isoxazolidin-3-one], the EC50 in assay [3] is greater than 20 µM; in assay [4], greater than 20 µM; in assay [1], greater than 20 µM; in assay [2] it was 0.1 µM. Moreover, the Emax in assay [3] turned out to be 9%; in assay [4], 8%; in assay [1], 12%; in assay [2] it was 62%.
In the case of `O=C1CCON1CCCCC1CCN(CCCN2C(=O)CCc3ccccc32)CC1` [Example 11, 2-(4-(1-(3-(2-oxo-3,4-dihydroquinolin-1(2H)-yl)propyl)piperidin-4-yl)butyl)isoxazolidin-3-one], the EC50 is greater than 20 µM in assay [3], greater than 20 µM in assay [4], greater than 20 µM in assay [1] and 0.01 µM in assay [2]. The Emax in assay [3] was 4%; in assay [4] it was 7%; in assay [1] it was 10%; in assay [2], 92%.

The values are drawn from patent US12215099B2, “Quinolinone and benzoxazine derivatives as muscarinic M1 and/or M4 receptor agonists” (Nxera Pharma UK Limited, priority 2018, dated 2025).
